Data taken from patent US11078188B2, “Dihydroquinoxaline bromodomain recognition protein inhibitor, preparation method and use thereof” (SHANGHAI INSTITUTE OF MATERIA MEDICA, CHINESE ACADEMY OF …, priority 2017, dated 2021).

What was measured:
2D6 = 2D6 (Homo sapiens (Human), UniProt P10635); assay: Direct inhibition test (DI test), CYP 2D6; type: in vitro ADME; details: human liver microsomes 0.2 mg/ml, 20 min
Protocol: (§1) The system which was 100 μl of human liver microsomes (final concentration: 0.2 mg/ml) was used for direct inhibition incubation. The system contained NADPH (final concentration: 1 mM), 10 μl compound, positive inhibitor cocktail (ketoconazole, 10 μl, quinidine 10 μl, sulfaphenazole 100 μl, naphthoflavone 10 μl, tranylcypromine 1000 μl), negative control 10 μl DMSO and mixed probe substrate (midazolam 10 μl, testosterone 100 μl, dextromethorphan 10 μl, diclofenac 20 μl, phenacetin 100 μl, mephenytoin 100 μl). The reaction was stopped after the system was incubated for 20 min. The relative activity of the enzyme was calculated by measuring the relative amount of production of the metabolite.

2C9 = 2C9 (Homo sapiens (Human), UniProt P11712); assay: Direct inhibition test (DI test), CYP 2C9; type: in vitro ADME; details: human liver microsomes 0.2 mg/ml, 20 min
2C9, sequence (P11712 whole entry): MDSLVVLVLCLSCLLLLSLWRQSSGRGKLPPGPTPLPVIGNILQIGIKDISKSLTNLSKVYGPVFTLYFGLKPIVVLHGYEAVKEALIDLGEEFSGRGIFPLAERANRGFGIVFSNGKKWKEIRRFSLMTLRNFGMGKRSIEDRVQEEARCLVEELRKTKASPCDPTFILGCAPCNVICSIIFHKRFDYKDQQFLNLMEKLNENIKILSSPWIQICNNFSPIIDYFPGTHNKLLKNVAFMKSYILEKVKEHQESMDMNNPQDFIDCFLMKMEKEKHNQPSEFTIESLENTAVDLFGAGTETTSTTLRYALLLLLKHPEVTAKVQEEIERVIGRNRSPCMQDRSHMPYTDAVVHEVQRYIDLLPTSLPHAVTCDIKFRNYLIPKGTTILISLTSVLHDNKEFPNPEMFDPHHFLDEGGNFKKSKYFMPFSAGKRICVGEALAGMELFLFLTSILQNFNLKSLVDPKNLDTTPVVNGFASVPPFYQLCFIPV
Protocol: as §1

CYP2C19 = CYP2C19 (Homo sapiens (Human), UniProt P33261); assay: Direct inhibition test (DI test), CYP 2C19; type: in vitro ADME; details: human liver microsomes 0.2 mg/ml, read-out: Direct inhibition rate (%) 2C19
CYP2C19, sequence (P33261 whole entry): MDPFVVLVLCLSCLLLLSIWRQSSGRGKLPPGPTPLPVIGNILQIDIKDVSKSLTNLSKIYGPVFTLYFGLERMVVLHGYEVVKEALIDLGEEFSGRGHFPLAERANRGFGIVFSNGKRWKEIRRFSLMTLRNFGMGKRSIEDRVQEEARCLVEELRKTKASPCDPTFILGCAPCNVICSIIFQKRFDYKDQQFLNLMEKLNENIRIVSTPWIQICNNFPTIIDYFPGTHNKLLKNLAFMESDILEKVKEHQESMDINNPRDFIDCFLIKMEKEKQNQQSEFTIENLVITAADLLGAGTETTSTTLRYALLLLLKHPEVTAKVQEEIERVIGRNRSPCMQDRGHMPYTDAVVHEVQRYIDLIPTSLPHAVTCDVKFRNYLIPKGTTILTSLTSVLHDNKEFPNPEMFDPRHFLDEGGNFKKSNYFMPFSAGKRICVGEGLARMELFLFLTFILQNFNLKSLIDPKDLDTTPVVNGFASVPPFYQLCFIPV
Protocol: as §1

3A4 = 3A4 (Homo sapiens (Human), UniProt P08684); assay: Direct inhibition test (DI test), CYP 3A4; type: in vitro ADME; details: human liver microsomes 0.2 mg/ml, 20 min; for Direct inhibition rate (%) 3A4, second value: second of two values a/b (two 3A4 probes midazolam, testosterone; assignment not given); for Direct inhibition rate (%) 3A4, first value: first of two values a/b (two 3A4 probes midazolam, testosterone; assignment not given)
3A4, sequence (P08684 whole entry): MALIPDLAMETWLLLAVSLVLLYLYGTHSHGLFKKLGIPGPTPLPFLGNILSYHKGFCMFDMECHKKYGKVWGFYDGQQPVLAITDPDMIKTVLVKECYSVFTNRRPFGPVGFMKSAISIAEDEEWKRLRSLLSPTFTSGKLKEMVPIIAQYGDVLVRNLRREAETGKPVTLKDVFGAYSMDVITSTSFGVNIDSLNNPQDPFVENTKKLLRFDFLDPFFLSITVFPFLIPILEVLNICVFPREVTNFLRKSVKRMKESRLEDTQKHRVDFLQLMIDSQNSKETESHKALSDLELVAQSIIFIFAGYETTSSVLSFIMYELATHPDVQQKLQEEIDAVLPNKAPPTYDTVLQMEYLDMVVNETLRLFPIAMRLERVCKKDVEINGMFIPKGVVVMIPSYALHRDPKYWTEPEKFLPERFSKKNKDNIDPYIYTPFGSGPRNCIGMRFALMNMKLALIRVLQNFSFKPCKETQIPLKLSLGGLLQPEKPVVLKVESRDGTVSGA
Protocol: as §1

CYP3A4 = CYP3A4 (Homo sapiens (Human), UniProt P08684); assay: Direct inhibition test (DI test), CYP 3A4; type: in vitro ADME; details: human liver microsomes 0.2 mg/ml, first of two values a/b (two 3A4 probes midazolam, testosterone; assignment not given), read-out: Direct inhibition rate (%) 3A4, first value
CYP3A4, sequence (P08684 whole entry): as above
Protocol: as §1

[1] = Metabolic stability in human liver microsomes; type: in vitro ADME; details: human liver microsomes 0.5 mg/ml, 1 μM compound, NADPH; for microsomal CLint at 1 μM: read-out: HLM Clint; for half-life at 1 μM: read-out: HLM t1/2
Protocol: The system which was 150 μl of human liver microsomes (final concentration: 0.5 mg/ml) was used for metabolic stability incubation. The system contained reduced coenzyme II (NADPH) (final concentration: 1 mM) and 1 μM compound, positive control or negative control. The reaction was terminated with acetonitrile containing (imiprozine, batch number: 3221; tinidazole, given) at 0 min, 5 min, 10 min, and 30 min, respectively. The mixture was vortexed for 10 min, centrifuged at 15000 rpm for 10 min, and 50 μl of the supernatant was injected into a 96-well plate. The metabolic stability of the compound was calculated by measuring the relative reduction in the original medicament.
(§2) HLM Clint (μl/min/mg) refers to the clearance rate of compounds in human liver microsomes having a unit of μl/min/mg; mLM Clint (μl/min/mg) refers to the clearance rate of compounds in mouse liver microsomes having a unit of μl/min/mg; HLM t1/2 (min) refers to the half-life of the compound in human liver microsomes having a unit of minutes; mLM t1/2 (min) refers to the half-life of the compound in mouse liver microsomes having a unit of minutes. TDI means that the mechanism inhibition test of compounds on CYP enzyme evaluates whether the compound has time-dependent inhibition of the enzyme.

BRD4 (I) = BRD4 (I) (Homo sapiens (Human), UniProt O60885); assay: Fluorescence anisotropy (FA) binding test on BRD4 (I); details: BRD4 (I) 10 nM, fluorescent (+)-JQ1 substrate 5 nM, read-out: BRD4 (1) IC50
Protocol: The binding activity of the compound to BRD4 (I) was tested using a fluorescence anisotropy (FA) method. The principle of FA test is to calculate and analyze the fluorescence polarization values in the horizontal and vertical directions by detecting the change of molecular weight before and after the interaction of fluorescein-labeled small molecules with other molecules. If the equilibrium of the binding between the fluorescently labeled small molecule and macromolecule is established, it will move slowly when excited, and the measured fluorescence polarization value will increase. If the binding between the fluorescently labeled small molecule and the macromolecule is replaced by another ligand, its rotation or flipping speed in the free state will be faster, and the emitted light will be depolarized relative to the plane of the excitation light, and the measured polarized light value will decrease to calculate the fluorescence anisotropy of the sample.
Expression and purification of the BRD4(I) recognition domain: colonies of newly transformed plasmid DNA from E. coli BL21(DE3)-condon plus-RIL cells were cultivated in 50 mL of Terrific Broth medium containing 50 μg/mL kanamycin and 34 μg/mL chloramphenicol at 37° C. overnight (starting culture). The starting culture was then diluted 100-fold in 1 L of fresh TB medium and the cells were grown at 37° C. to an optical density of about 0.8 at OD600 and then the temperature was lowered to 16° C. When the system was equilibrated at 16° C., the optical density at OD600 was approximately 1.2, and protein expression was induced with 0.2 mmol of isopropyl-β-D-thiogalactopyranoside (IPTG) overnight at 16° C. Bacteria were harvested by centrifugation (4000×g, 20 minutes, 4° C.) and stored as a pellet at −80° C. The cells expressing His 6-tagged protein was resuspend in lysis buffer [50 mmol 4-hydroxyethylpiperazineethanesulfonic acid (HEPES), 25° C., pH 7.5, 500 mmol NaCl, 10 mmol imidazole, 5% glycerol and freshly added 0.5 mmol of tris(2-carboxyethyl)phosphine hydrochloride (TCEP) and 1 mmol of phenylmethanesulfonyl fluoride (PMSF)] and lysed at 4° C. using JN 3000PLUS high pressure homogenizer (JNBIO-Guangzhou, China). The lysate was clarified by centrifugation (12,000×g for 1 hour at 4° C.) and applied to a nickel-nitriloacetate agarose column. The column was washed once with 50 mL of wash buffer containing 30 mmol of imidazole. The protein was eluted using imidazole in an elution buffer in a stepwise elution (100-250 mmol imidazole in 50 mmol HEPES, 25° C., pH 7.5, 500 mmol NaCl, 5% glycerol). All fractions were collected and monitored by SDS-polyacrylamide gel electrophoresis (Bio-Rad Criterion TM Precast Gels, 4-12% Bis-Tris, 1.0 mm, from Bio-Rad, CA). After 1 mmol of dithiothreitol (DTT) was added, the eluted proteins were treated with tobacco […] virus (TEV) protease overnight at 4° C. to remove the His6 tag. The protein was concentrated and further purified by size exclusion chromatography on a Superdex 75 16/60 HiLoad gel filtration column. The samples were monitored by SDS-polyacrylamide gel electrophoresis and concentrated to 8-10 mg/mL with gel filtration buffer, 10 mmol Hepes pH 7.5, 500 mM NaCl, 1 mmol DTT, and used for protein binding assays and crystallization.
The fluorogenic substrate was (+)-JQ1 linked to a fluorescent molecule and the working concentration was 5 nM. BRD4 (I) protein had 10 nM of working concentration and the total reaction system was 40 μL. The buffer was 50 mM 4-hydroxyethylpiperazineethanesulfonic acid (HEPES) pH 7.4, 150 mM NaCl, 0.5 mM 3[(3-cholamidopropyl)dimethylammonio]propanesulfonate (CHAPS). […] The final concentration of DMSO was chosen to be 0.2%, taking into account the solubility of the compound and the effect of DMSO on the assay. All measurements were made under these conditions. […]

[2] = Metabolic stability in mouse liver microsomes; type: in vitro ADME; details: for microsomal CLint at 1 μM: read-out: mLM Clint
CYP enzyme = assay: Mechanistic inhibition test (TDI test); type: in vitro ADME; details: human liver microsomes 0.2 mg/ml; mechanism inhibition if kobs greater than 200
Protocol: The system which was 200 μl of human liver microsomes (final concentration: 0.2 mg/ml) was used for mechanistic inhibition incubation. The system contained 10 μl compound, mixed positive inhibitor (Troleandomycin 10 μl, Paroxetine 10 μl, Tienilic acid 10 μM, Furafylline 10 μl) or 10 μl negative control PRO. After NADPH (final concentration: 1 mM) or PBS was added, the system was incubated for 0 min, 5 min, 10 min and 30 min, then NADPH (final concentration: 1 mM) and mixed probe substrate (Midazolam 5 μM, Testosterone 50 μl, Dextromethophan 5 μM, Diclofenac 10 μl, Phenacetin 5 0 μM, S-(+)-mephenytoin 50 μl) were added and incubated for 10 min. Then the reaction was stopped. The test for positive inhibitor CYP2C19 was carried out alone, the inhibitor S-(+)-fluoxetine was 100 μM. The enzyme activity was calculated by measuring the relative production amount of metabolite. kobs was calculated.
as §2

CYP2D6 = CYP2D6 (Homo sapiens (Human), UniProt P10635); assay: Direct inhibition test (DI test), CYP 2D6; type: in vitro ADME; details: human liver microsomes 0.2 mg/ml, read-out: Direct inhibition rate (%) 2D6
CYP2D6, sequence (P10635 whole entry): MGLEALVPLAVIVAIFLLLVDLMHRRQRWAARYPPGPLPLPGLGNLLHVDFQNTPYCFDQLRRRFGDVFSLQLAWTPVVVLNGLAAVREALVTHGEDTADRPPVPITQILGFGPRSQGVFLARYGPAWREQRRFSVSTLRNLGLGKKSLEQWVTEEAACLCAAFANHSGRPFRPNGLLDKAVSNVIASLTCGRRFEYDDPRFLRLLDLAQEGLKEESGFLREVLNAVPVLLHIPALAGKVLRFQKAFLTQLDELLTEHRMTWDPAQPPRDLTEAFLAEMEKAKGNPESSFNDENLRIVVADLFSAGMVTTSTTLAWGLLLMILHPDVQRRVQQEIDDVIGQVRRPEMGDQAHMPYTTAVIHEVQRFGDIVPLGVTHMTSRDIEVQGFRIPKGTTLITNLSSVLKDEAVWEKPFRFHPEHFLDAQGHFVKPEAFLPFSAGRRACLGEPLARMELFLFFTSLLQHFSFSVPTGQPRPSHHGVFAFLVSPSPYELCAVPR
Protocol: as §1

CYP2C9 = CYP2C9 (Homo sapiens (Human), UniProt P11712); assay: Direct inhibition test (DI test), CYP 2C9; type: in vitro ADME; details: human liver microsomes 0.2 mg/ml, read-out: Direct inhibition rate (%) 2C9
CYP2C9, sequence (P11712 whole entry): as the sequence (P11712 whole entry) above
Protocol: as §1

[3] = system: human myeloma cells MM.1S; assay: MM.1S cell viability, CCK-8 method; type: cell-based
Protocol: The MM.1S cell line was tested for cell viability. The test methods were as follows: human myeloma cells MM.1S were treated with compound for 72 h, and the proliferation inhibition effect and degree of the compound were detected by CCK-8 method.

DLBCL cells = details: cited from earlier work
[4] = system: MM.1S nude mice xenografts; assay: Growth of MM.1S nude mice xenografts in vivo; set-up: species or system Balb/C nude mice; details: 50 mg/kg qd/14 po
Protocol: Balb/C nude mice (6 weeks, female, Beijing Huafukang Biotechnology Co., Ltd.) were purchased, and the animals were conditioned for about one week before the test. MM.1S cells were cultured in vitro, and the cells in logarithmic growth phase were resuspended in serum-free RPMI1640 medium to adjust the cell concentration. The cell suspension was subcutaneously injected into forefoot armpit of the Balb/C nude mice with a syringe, and each animal was injected with 150 μL (8.0×10^6/mouse). When the average tumor volume grew to about ˜150 mm^3, the animals were divided into 4 groups containing solvent control group, 50 mg/kg OTX-015 group, and 20 and 50 mg/kg compound 6 groups by the randomized block method and each group contained six animals. […] During the administration period, the tumor diameter was measured twice a week, the body weight of the animals was weighed, the living state of the animals was observed, and abnormal conditions were recorded.
The formula for calculating tumor volume (TV): TV=½×a×b^2, where a and b represent length and width, respectively.
The relative tumor volume (RTV) was calculated based on the measured results, and the calculation formula was: RTV=Vt/V0. Wherein V0 was the measured tumor volume at the time of administration by cage (ie, d0), and Vt was the tumor volume at each measurement.
The relative tumor proliferation rate T/C (%) was calculated based on the measured results, and the calculation formula was as follows: T/C (%)=(TRTV/CRTV)×100%, TRTV: treatment group RTV; CRTV: negative control group RTV.

2D6, sequence (P10635 whole entry): as the sequence (P10635 whole entry) above

Row | SMILES | inhibition at 20 min (CYP2C19) [%] | Direct inhibition rate (%) 3A4, second value (3A4) [%] | inhibition at 20 min (CYP3A4) [%] | microsomal CLint at 1 μM [1] [µL/min/mg] | half-life at 1 μM [1] [min] | IC50 (BRD4 (I)) [µM] | half-life at 1 μM ([2]; read-out: MLM t1/2) [min] | microsomal CLint at 1 μM [2] [µL/min/mg] | TDI (CYP enzyme) | inhibition at 20 min (CYP2D6) [%] | inhibition at 20 min (CYP2C9) [%] | Direct inhibition rate (%) 3A4, first value (3A4) [%] | also measured
1 | C[C@@H]1C(=O)N(C)c2ccc(-c3nc(C(=O)N4CCCN(C)CC4)nn3-c3ccccc3)cc2N1C1CCCC1 [Example 8] | 35 | 6 | 5 | 58 | 23.9 | 0.0098 | 22.4 | 62 | no | – | – | – | Direct inhibition rate (%) 2D6 (2D6): no; Direct inhibition rate (%) 2C9 (2C9): no
2 | Cc1ccc(-n2nc(C(=O)N3CCN(C)CC3)cc2-c2ccc3c(c2)N(C2CCCC2)[C@H](C)C(=O)N3C)cc1 [Example 26] | 34 | 37 | 35 | 66 | 21 | 0.0051 | 27 | 52 | no | 4 | 39 | – | –
3 | Cc1ccc(-n2nc(C(=O)N3C[C@@H](C)N[C@@H](C)C3)cc2-c2ccc3c(c2)N(C2CCCC2)[C@H](C)C(=O)N3C)cc1 [Example 27] | 19 | 47 | – | 55 | 25 | 0.0049 | – | 6 | no | 6 | 27 | 24 | half-life at 1 μM ([2]; read-out: half-lives in mouse liver microsomes): 248 min
4 | Cc1ccc(-n2nc(C(=O)N3CCN(C)CC3)nc2-c2ccc3c(c2)N(C2CC2)C(C)C(=O)N3C)cc1 (stereo not drawn) [Example 33] | – | 12 | – | – | – | 0.0157 | – | – | no | – | – | 7 | HLM Clint [1]: 22 µL/min/mg; HLM t1/2 [1]: 62 min; MLM t1/2 [2]: 107 min; mLM Clint [2]: 13 µL/min/mg; IC50 ([3]; 72 h treatment, CCK-8): 0.0107 ± 0.00259 µM; inhibitory activity against the MM.1S cell line (in words) ([3]; compared with positive (+)-JQ1): better inhibitory activity against the MM.1S cell line than the positive (+)-JQ1
5 | Cc1sc2c(c1C)C(c1ccc(Cl)cc1)=N[C@@H](CC(=O)Nc1ccc(O)cc1)c1nnc(C)n1-2 [OTX-015, reference compound] | – | – | – | – | – | – | – | – | – | – | – | – | IC50 (DLBCL cells): 0.192 µM; RTV (mean SD) [4]: 603.15; T/C (%) [4]: 49.90%; TV (mm^3, mean) d0 ([4]; d0 (at start of administration)): 184.48 mm^3; TV (mm^3, mean) d14 ([4]; d14): 886.75 mm^3
